Source: patent publication US20250129104A1, “7H-PYRROLO[2,3-D]PYRIMIDINES AND PREPARATION AND USES THEREOF” (BioSplice Therapeutics, Inc., priority 2021, published 2025)

Molecular target: recombinant DYRK1A kinase (Homo sapiens (Human), UniProt Q13627)
Test: DYRK1A kinase assay (Ser/Thr 18 peptide Z-lyte FRET assay)
Assay type: biochemical
Settings: DYRK1A kinase activity; 15 μM ATP, 1 h room temperature; method text calls the value IC50
In short: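 FRET Z-lyte read-out (coumarin/fluorescein ratio, % phosphorylation) after 1 h development; IC50 from non-linear curve fit. Reaction: 0.25 μg/mL recombinant human DYRK1A, Ser/Thr 18 peptide 4 μM, ATP 15 μM, compound in 11-point 1:3 series from 10 μM, 1 h, room temperature, duplicate wells.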

Row | Compound | EC50
1 | CN1CCN(C(=O)c2cnn3ccc(-c4c[nH]c5ncnc(NCC6CC6)c45)cc23)CC1 [Compound 1244, (5-(4-((cyclopropylmethyl)amino)-7H-pyrrolo[2,3-d]pyrimidin-5-yl)pyrazolo[1,5-a]pyridin-3-yl)(4-methylpiperazin-1-yl)methanone] | 0.494 µM
2 | CN(C)C(=O)c1cnn2ccc(-c3c[nH]c4nc(C5CC5)ncc34)cc12 [Compound 1245, 5-(2-Cyclopropyl-7H-pyrrolo[2,3-d]pyrimidin-5-yl)-N,N-dimethylpyrazolo [1,5-a]pyridine-3-carboxamide] | 0.182 µM
3 | CN(C(=O)c1cnn2ccc(-c3c[nH]c4nc(C5CC5)ncc34)cc12)C1CC(F)(F)C1 [Compound 1379, 5-(2-Cyclopropyl-7H-pyrrolo[2,3-d]pyrimidin-5-yl)-N-(3,3-difluorocyclobutyl)-N-methylpyrazolo[1,5-a]pyridine-3-carboxamide] | 0.0798 µM
4 | O=C(NCC1CC(F)(F)C1)c1cnn2ccc(-c3c[nH]c4nc(C5CC5)ncc34)cc12 [Compound 1422, 5-(2-Cyclopropyl-7H-pyrrolo[2,3-d]pyrimidin-5-yl)-N-((3,3-difluorocyclobutyl)methyl)pyrazolo[1,5-a]pyridine-3-carboxamide] | 0.006 µM
5 | CC(C)Nc1ncc2c(-c3ccn4ncc(C(=O)NCC5CC(F)(F)C5)c4c3)c[nH]c2n1 [Compound 1428, N-((3,3-Difluorocyclobutyl)methyl)-5-(2-(isopropylamino)-7H-pyrrolo[2,3-d]pyrimidin-5-yl)pyrazolo[1,5-a]pyridine-3-carboxamide] | 0.0114 µM
6 | CO[C@H]1CC[C@H](NC(=O)c2cnn3ccc(-c4c[nH]c5nc(C6CC6)ncc45)cc23)CC1 [Compound 1465, 5-(2-Cyclopropyl-7H-pyrrolo[2,3-d]pyrimidin-5-yl)-N-(trans-4-methoxycyclohexyl)pyrazolo[1,5-a]pyridine-3-carboxamide] | 0.0067 µM
7 | CN1CCC(NC(=O)c2cnn3ccc(-c4c[nH]c5nc(N)ncc45)cc23)CC1 [Compound 1511, 5-(2-amino-7H-pyrrolo[2,3-d]pyrimidin-5-yl)-N-(1-methylpiperidin-4-yl)pyrazolo[1,5-a]pyridine-3-carboxamide] | 0.0034 µM
8 | O=C(NC1CCOCC1)c1cnn2ccc(-c3c[nH]c4nc(C5CC5)ncc34)cc12 [Compound 1551, 5-(2-Cyclopropyl-7H-pyrrolo[2,3-d]pyrimidin-5-yl)-N-(tetrahydro-2H-pyran-4-yl)pyrazolo[1,5-a]pyridine-3-carboxamide] | 0.0075 µM
9 | CC(C)Cc1ncc2c(-c3ccn4nccc4n3)c[nH]c2n1 [Compound 1636, 2-Isobutyl-5-(pyrazolo[1,5-a]pyrimidin-5-yl)-7H-pyrrolo[2,3-d]pyrimidine] | 0.214 µM
10 | CC(C)(C)CNc1ncc2c(-c3ccn4nccc4n3)c[nH]c2n1 [Compound 1646, N-Neopentyl-5-(pyrazolo[1,5-a]pyrimidin-5-yl)-7H-pyrrolo[2,3-d]pyrimidin-2-amine] | 0.0191 µM
11 | CC(F)(F)CNc1ncc2c(-c3ccn4nccc4n3)c[nH]c2n1 [Compound 1649, N-(2,2-Difluoropropyl)-5-(pyrazolo[1,5-a]pyrimidin-5-yl)-7H-pyrrolo[2,3-d]pyrimidin-2-amine] | 0.0059 µM
12 | FC(F)(F)CNc1ncc2c(-c3ccn4nccc4n3)c[nH]c2n1 [Compound 1650, 5-(Pyrazolo[1,5-a]pyrimidin-5-yl)-N-(2,2,2-trifluoroethyl)-7H-pyrrolo[2,3-d]pyrimidin-2-amine] | 0.0198 µM
13 | C[C@@H](Nc1ncc2c(-c3ccn4nccc4n3)c[nH]c2n1)C(F)(F)F [Compound 1651, (R)-5-(Pyrazolo[1,5-a]pyrimidin-5-yl)-N-(1,1,1-trifluoropropan-2-yl)-7H-pyrrolo[2,3-d]pyrimidin-2-amine] | 0.0132 µM
14 | C[C@H](Nc1ncc2c(-c3ccn4nccc4n3)c[nH]c2n1)C(F)(F)F [Compound 1652, (S)-5-(Pyrazolo[1,5-a]pyrimidin-5-yl)-N-(1,1,1-trifluoropropan-2-yl)-7H-pyrrolo[2,3-d]pyrimidin-2-amine] | 0.103 µM
15 | FC1(F)CCC(Nc2ncc3c(-c4ccn5nccc5n4)c[nH]c3n2)CC1 [Compound 1663, N-(4,4-Difluorocyclohexyl)-5-(pyrazolo[1,5-a]pyrimidin-5-yl)-7H-pyrrolo [2,3-d]pyrimidin-2-amine] | 0.0092 µM
16 | CN1CCC(Nc2ncc3c(-c4ccn5nccc5n4)c[nH]c3n2)CC1 [Compound 1667, N-(1-Methylpiperidin-4-yl)-5-(pyrazolo[1,5-a]pyrimidin-5-yl)-7H-pyrrolo [2,3-d]pyrimidin-2-amine] | 0.019 µM
17 | c1cc2nc(-c3c[nH]c4nc(NC5CCOCC5)ncc34)ccn2n1 [Compound 1669, 5-(Pyrazolo[1,5-a]pyrimidin-5-yl)-N-(tetrahydro-2H-pyran-4-yl)-7H-pyrrolo [2,3-d]pyrimidin-2-amine] | 0.0061 µM
18 | CC(C)(F)CNc1ncc2c(-c3ccn4ncc(F)c4n3)c[nH]c2n1 [Compound 1678, N-(2-Fluoro-2-methylpropyl)-5-(3-fluoropyrazolo[1,5-a]pyrimidin-5-yl)-7H-pyrrolo[2,3-d]pyrimidin-2-amine] | 0.0211 µM
19 | C[C@@H](Nc1ncc2c(-c3ccn4ncc(F)c4n3)c[nH]c2n1)C(F)(F)F [Compound 1679, (R)-5-(3-Fluoropyrazolo[1,5-a]pyrimidin-5-yl)-N-(1,1,1-trifluoropropan-2-yl)-7H-pyrrolo[2,3-d]pyrimidin-2-amine] | 0.0929 µM
20 | C[C@@H](Nc1ncc2c(-c3ccn4ncc(Cl)c4n3)c[nH]c2n1)C(F)(F)F [Compound 1681, (R)-5-(3-Chloropyrazolo[1,5-a]pyrimidin-5-yl)-N-(1,1,1-trifluoropropan-2-yl)-7H-pyrrolo[2,3-d]pyrimidin-2-amine] | 0.0988 µM
21 | CC(C)(F)CNc1ncc2c(-c3ccn4ncc(C5CC5)c4n3)c[nH]c2n1 [Compound 1695, 5-(3-Cyclopropylpyrazolo[1,5-a]pyrimidin-5-yl)-N-(2-fluoro-2-methylpropyl)-7H-pyrrolo[2,3-d]pyrimidin-2-amine] | 0.0051 µM
22 | CN1CCC(CNc2ncc3c(-c4ccc5c(c4)OCCNC5=O)c[nH]c3n2)CC1 [Compound 1758, 8-(2-(((1-Methylpiperidin-4-yl)methyl)amino)-7H-pyrrolo[2,3-d]pyrimidin-5-yl)-3,4-dihydrobenzo[f][1,4]oxazepin-5(2H)-one] | 0.0073 µM
23 | CN1CCN(c2cc(Nc3ncc4c(-c5ccc6c(c5)CCCO6)c[nH]c4n3)ccn2)CC1 [Compound 1768, 5-(Chroman-6-yl)-N-(2-(4-methylpiperazin-1-yl)pyridin-4-yl)-7H-pyrrolo [2,3-d]pyrimidin-2-amine] | 0.0348 µM
24 | CN1CCC(Nc2ncc3c(-c4ccc5c(c4)OC(C)(C)CC5=O)c[nH]c3n2)CC1 [Compound 1801, 2,2-Dimethyl-7-(2-((1-methylpiperidin-4-yl)amino)-7H-pyrrolo[2,3-d]pyrimidin-5-yl)chroman-4-one] | 0.0669 µM
25 | COc1nc(CC(C)C)nc2[nH]cc(-c3ccc4ncccc4c3)c12 [Compound 1857, 6-(2-Isobutyl-4-methoxy-7H-pyrrolo[2,3-d]pyrimidin-5-yl)quinoline] | 0.0427 µM
26 | Nc1ncc2c(-c3ccc4ncccc4c3)c[nH]c2n1 [Compound 1862, 5-(Quinolin-6-yl)-7H-pyrrolo[2,3-d]pyrimidin-2-amine] | 0.0029 µM
27 | CNc1ncc2c(-c3ccc4ncccc4c3)c[nH]c2n1 [Compound 1863, N-Methyl-5-(quinolin-6-yl)-7H-pyrrolo[2,3-d]pyrimidin-2-amine] | 0.0029 µM
